Assay results from patent US8481600B2, “Formulation of aspirin that is stable and showing minimal hydrolysis for parenteral administration for the treatment of cardiovascular and other disease states” (Academic Pharmaceuticals, Inc., priority 2007, dated 2013).

Assay: Dissolution of ASA in buffers and solvent systems (clear solution or suspension)
Format: physicochemical
Conditions: for Dissolution of aspirin in buffer: aspirin 10 to 50 mg/ml in 10 ml; for Dissolution of aspirin in solvent system: aspirin up to 75 mg/ml
Protocol: Parenteral solutions comprising aspirin in buffers are typically prepared by mixing the required amount of aspirin in the buffer. The process is preferably carried out at room temperature, although other temperatures are acceptable for these preparations.
ASA (aspirin) was attempted to be dissolved in a number of solvent systems and then stability was determined if these solutions provided clear, colorless dissolution of ASA. In the following buffers aspirin was found riot to be soluble. These buffers are listed below: • 1.
In another series of experiments, dissolution of aspirin in solvents that are listed below were attempted to provide parenteral solutions suitable for intravenous administration comprising an effective amount of aspirin. […] The pH of the solutions ranged from 1.5 to 6.8. Ph adjustments were made using 1N NaOH solution. • 1. To water (2.0 ml), 1-propanol (0.5 ml) and Tween 20 (0.5 ml) was added to aspirin at a concentration level of up to 75 mg/ml. […] To water (2.0 ml), 1-propanol (0.5 ml) and Tween 40 (0.5 ml) was added to aspirin at a concentration level of up to 75 mg/ml. […] To water (2.0 ml), 1-propanol (0.5 ml) and Tween 60 (0.5 ml) was added to aspirin at a concentration level of up to 75 mg/ml. […] To water (2.0 ml), 1-propanol (0.5 ml) and Tween 80 (0.5 ml) was added to aspirin at a concentration level of up to 75 mg/ml. […] To water (2.0 ml), 1-propanol (0.5 ml) and PEG 300 was added to aspirin at a concentration level of up to 75 mg/ml. […] To water (2.0 ml), 1-propanol (0.5 ml) and PEG 400 was added to aspirin at a concentration level of up to 75 mg/ml. […] To water (2.0 ml), 1-propanol (0.5 ml) and PEG 600 was added to aspirin at a concentration level of up to 75 mg/ml. […] To water (2.0 ml), 1-propanol (0.5 ml) and glycerol was added to aspirin at a concentration level of up to 75 mg/ml. […] To water (2.0 ml), DMSO (1-2%) and Tween 20 was added to aspirin at a concentration level of up to 75 mg/ml. […] To water (2.0 ml), DMSO (1-2%) and Tween 40 was added to aspirin at a concentration level of up to 75 mg/ml. […] To water (2.0 ml), DMSO (1-2%) and Tween 60 was added to aspirin at a concentration level of up to 75 mg/ml. […] To water (2.0 ml), DMSO (1-2%) and Tween 80 was added to aspirin at a concentration level of up to 75 mg/ml. […] To glycerine (1 ml), 1-propanol (3 ml) and Tween 80 (0.2 ml) was added to aspirin at a concentration level of up to 75 mg/ml. […] To glycerine (1 ml), 1,2-propanol and Tween 80 (0.2 ml) was added to aspirin at a concentration level, of up to 75 mg/ml. […] To glycerine (1 ml), PEG 300 and Tween 80 (0.2 ml) was added to aspirin at a concentration of up to 75 mg/ml. […] To glycerine (1 ml), PEG 400 and Tween 80 (0.2 ml) was added to aspirin at a concentration of up to 75 mg/ml. […] To glycerine (1 ml), PEG 600 and Tween 80 (0.2 ml) was added to aspirin at a concentration of up to 75 mg/ml.
• 1. To N,N-Dimethylacetamide (NNDMA) (10 ml), aspirin was added at a concentration level of up to 500 mg/ml. […] To N,N-Dimethylacetamide (NNDMA) (10 ml) and ASA, glycerol (0.1 in 10 ml) added, Tween 20 (0.1 in 10 ml) were added. […] To N,N-Dimethylacetamide (NNDMA) (10 ml) and ASA, glycerol (0.1 in 10 ml), Tween 40 (0.1 in 10 ml) were added. […] To N,N-Dimethylacetamide (NNDMA) (10 ml) and ASA, glycerol (0.1 in 10 ml), Tween 60 (0.1 in 10 ml) were added. […] To N,N-Dimethylacetamide (NNDMA) (10 ml) and ASA, glycerol (0.1 in 10 ml), Tween 80 (0.1 in 10 ml) were added. […] To N,N-Dimethylacetamide (NNDMA) (10 ml) and ASA, glycerol (0.1 in 10 ml) were added. […] To N,N-Dimethylacetamide (NNDMA) (10 ml) and ASA, glycerol (0.1 in 10 ml), and DMSO (1-2%) were added. […] To N,N-Dimethylacetamide (NNDMA) (10 ml) and ASA, DMSO (1-2%) was added. […] The amount of aspirin present was greater than 98% at room temperature for 6 months. […]

CC(=O)Oc1ccccc1C(=O)O [ASA, aspirin]
solubility in N,N-dimethylacetamide: readily soluble
Dissolution of ASA in NNDMA and other diluents: appearance (1. N,N-Dimethylacetamide (NNDMA) (10 ml), aspirin up to 500 mg/ml): Clear Purity
Dissolution of ASA in NNDMA and other diluents: appearance (1. N,N-Dimethylacetamide (NNDMA) (10 ml), aspirin up to 500 mg/ml, listed as aspirin): clear solution
Dissolution of ASA in NNDMA and other diluents: appearance (2. NNDMA (10 ml), Glycerol (0.1 in 10 ml), Tween 20 (0.1 in 10 ml)): clear solution
Dissolution of ASA in NNDMA and other diluents: appearance (3. NNDMA (10 ml), Glycerol (0.1 in 10 ml), Tween 40 (0.1 in 10 ml)): clear solution
Dissolution of ASA in NNDMA and other diluents: appearance (4. NNDMA (10 ml), Glycerol (0.1 in 10 ml), Tween 60 (0.1 in 10 ml)): clear solution
Dissolution of ASA in NNDMA and other diluents: appearance (5. NNDMA (10 ml), Glycerol (0.1 in 10 ml), Tween 80 (0.1 in 10 ml)): clear solution
Dissolution of ASA in NNDMA and other diluents: appearance (6. NNDMA (10 ml), Glycerol (0.1 in 10 ml)): clear solution
Dissolution of ASA in NNDMA and other diluents: appearance (7. NNDMA (10 ml), Glycerol (0.1 in 10 ml), DMSO (1-2%)): clear solution
Dissolution of ASA in NNDMA and other diluents: appearance (8. NNDMA (10 ml), DMSO (1.2%) (text: 1-2%)): clear solution
Dissolution of ASA in buffer (AMPSO buffer 0.05 M, aspirin 10 to 50 mg/ml in 10 ml (″ = not soluble), listed as aspirin): suspension that was not clear
Dissolution of ASA in buffer (AMPSO buffer 0.10 M, aspirin 10 to 50 mg/ml in 10 ml (″ = not soluble), listed as aspirin): suspension that was not clear
Dissolution of ASA in buffer (Bicine buffer 0.10 M, aspirin 10 to 50 mg/ml in 10 ml (″ = not soluble), listed as aspirin): suspension that was not clear
Dissolution of ASA in buffer (Bis Tris buffer 0.05 M, aspirin 10 mg/ml to 50 mg/ml in 10 ml): 0.05 M not soluble
Dissolution of ASA in buffer (Bis Tris buffer 0.05 M, aspirin 10 mg/ml to 50 mg/ml in 10 ml, listed as aspirin): suspension that was not clear
Dissolution of ASA in buffer (Bis Tris buffer 0.10 M, aspirin 10 mg/ml to 50 mg/ml in 10 ml): 0.10 M not soluble
Dissolution of ASA in buffer (Bis Tris buffer 0.10 M, aspirin 10 mg/ml to 50 mg/ml in 10 ml, listed as aspirin): suspension that was not clear
Dissolution of ASA in buffer (CAPS buffer 0.05 M, aspirin 10 to 50 mg/ml in 10 ml (″ = not soluble), listed as aspirin): suspension that was not clear
Dissolution of ASA in buffer (CAPS buffer 0.10 M, aspirin 10 to 50 mg/ml in 10 ml (″ = not soluble), listed as aspirin): suspension that was not clear
Dissolution of ASA in buffer (HEPES buffer 0.05 M, aspirin 10 to 50 mg/ml in 10 ml (″ = not soluble), listed as aspirin): suspension that was not clear
Dissolution of ASA in buffer (HEPES buffer 0.10 M, aspirin 10 to 50 mg/ml in 10 ml (″ = not soluble), listed as aspirin): suspension that was not clear
solubility (N,N-dimethylacetamide (NNDMA), organic solvent or mixture, thermodynamic from solid, read-out: concentration at which aspirin was found to be soluble in NNDMA): ≤ 500 mg/mL
Dissolution of ASA in buffer (Saline (normal) 0.10 M, aspirin 10 to 50 mg/ml in 10 ml (″ = not soluble), listed as aspirin): suspension that was not clear
Dissolution of ASA in buffer (TAPS buffer 0.05 M, aspirin 10 to 50 mg/ml in 10 ml (″ = not soluble), listed as aspirin): suspension that was not clear
Dissolution of ASA in buffer (TAPS buffer 0.10 M, aspirin 10 to 50 mg/ml in 10 ml (″ = not soluble), listed as aspirin): suspension that was not clear
Dissolution of ASA in buffer (Tricine buffer 0.10 M, aspirin 10 to 50 mg/ml in 10 ml (″ = not soluble), listed as aspirin): suspension that was not clear
Dissolution of aspirin in buffer (Tricine buffer (0.1M), list item 7): suspension that was not clear
Dissolution of aspirin in buffer (bicine buffer (0.1M), list item 8): suspension that was not clear
Dissolution of aspirin in solvent system (glycerine (1 ml), 1,2-propanol, Tween 80 (0.2 ml)): clear solution
Dissolution of aspirin in solvent system (glycerine (1 ml), 1-propanol (3 ml), Tween 80 (0.2 ml)): clear solution
Dissolution of aspirin in solvent system (glycerine (1 ml), PEG 300, Tween 80 (0.2 ml)): clear solution
Dissolution of aspirin in solvent system (glycerine (1 ml), PEG 400, Tween 80 (0.2 ml)): clear solution
Dissolution of aspirin in solvent system (glycerine (1 ml), PEG 600, Tween 80 (0.2 ml)): clear solution
Dissolution of aspirin in buffer (sodium acetate (pH 6.5 and 3.8) buffer (0.1M), list item 6): suspension that was not clear
Dissolution of aspirin in buffer (sodium acetate pH 6.5 and 3.8 buffer (0.1M), list item 15): suspension that was not clear
Dissolution of aspirin in solvent system (water (2.0 ml), 1-propanol (0.5 ml), PEG 300): clear solution
Dissolution of aspirin in solvent system (water (2.0 ml), 1-propanol (0.5 ml), PEG 400): clear solution
Dissolution of aspirin in solvent system (water (2.0 ml), 1-propanol (0.5 ml), PEG 600): clear solution
Dissolution of aspirin in solvent system (water (2.0 ml), 1-propanol (0.5 ml), Tween 20 (0.5 ml)): clear solution
Dissolution of aspirin in solvent system (water (2.0 ml), 1-propanol (0.5 ml), Tween 40 (0.5 ml)): clear solution
Dissolution of aspirin in solvent system (water (2.0 ml), 1-propanol (0.5 ml), Tween 60 (0.5 ml)): clear solution
Dissolution of aspirin in solvent system (water (2.0 ml), 1-propanol (0.5 ml), Tween 80 (0.5 ml)): clear solution
Dissolution of aspirin in solvent system (water (2.0 ml), 1-propanol (0.5 ml), glycerol): clear solution
Dissolution of aspirin in solvent system (water (2.0 ml), DMSO (1-2%), Tween 20): clear solution
Dissolution of aspirin in solvent system (water (2.0 ml), DMSO (1-2%), Tween 40): clear solution
Dissolution of aspirin in solvent system (water (2.0 ml), DMSO (1-2%), Tween 60): clear solution
Dissolution of aspirin in solvent system (water (2.0 ml), DMSO (1-2%), Tween 80): clear solution
